# In US10508120B2, “TYK2 inhibitors and uses thereof” (Nimbus Lakshmi, Inc., priority 2017, dated 2019):
# Read-outs that look alike come from different tables or passages of the source.
# Assays:
# [1] = target: human TYK2 (JH2domain-pseudokinase) (Homo sapiens (Human), UniProt P29597); assay: TYK2 JH2 Domain Binding Assay (KINOMEscan)
# Outline: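 Competition binding of an NFkB-DBD fusion of human TYK2 JH2 (G556–D888), expressed in HEK293 and used as crude extract at <0.1 nM, against immobilized ligand beads; 1 h at room temperature in PBS/Tween/DTT/BSA buffer, 0.9% DMSO.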
# [2] = target: Tyk2 kinase domain (DH1) (Homo sapiens (Human), UniProt P29597); assay: Tyk2 Radioactive Kinase Assay; type: biochemical; details: for inhibition at 10 µM: read-out: Tyk2 JH1% Inhibition @ 10 μM
# Outline: (§1)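 Values are single-concentration percent inhibition figures. They were obtained with 10 μM compound in a radioactivity-based kinase assay run separately on each enzyme.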
# [3] = target: JAK2 kinase domain (JH1) (Homo sapiens (Human), UniProt O60674); assay: JAK2 Radioactive Kinase Assay; type: biochemical; details: for inhibition at 10 µM: read-out: JAK2 JH1% Inhibition @ 10 μM
# Outline: as §1
# Sequence of human TYK2 (JH2domain-pseudokinase) (P29597 556-888): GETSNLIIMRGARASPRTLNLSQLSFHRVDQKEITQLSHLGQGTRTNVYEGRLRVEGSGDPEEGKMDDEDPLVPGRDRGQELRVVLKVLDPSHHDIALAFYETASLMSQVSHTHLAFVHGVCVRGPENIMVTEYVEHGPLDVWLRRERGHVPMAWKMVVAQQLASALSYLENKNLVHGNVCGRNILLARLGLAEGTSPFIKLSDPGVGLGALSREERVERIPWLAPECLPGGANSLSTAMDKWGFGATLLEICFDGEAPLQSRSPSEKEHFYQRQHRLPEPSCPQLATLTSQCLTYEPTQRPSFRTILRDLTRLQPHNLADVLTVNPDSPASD
# Sequence of JAK2 kinase domain (JH1) (O60674 849-1124): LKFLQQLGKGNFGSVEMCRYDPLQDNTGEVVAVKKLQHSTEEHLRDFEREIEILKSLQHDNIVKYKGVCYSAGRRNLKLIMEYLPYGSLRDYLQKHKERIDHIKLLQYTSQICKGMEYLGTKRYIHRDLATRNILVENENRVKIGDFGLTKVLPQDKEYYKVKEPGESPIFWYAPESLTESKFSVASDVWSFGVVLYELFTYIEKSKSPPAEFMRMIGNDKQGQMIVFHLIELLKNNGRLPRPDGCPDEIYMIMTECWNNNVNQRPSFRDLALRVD
# Sequence of Tyk2 kinase domain (DH1) (P29597 897-1176): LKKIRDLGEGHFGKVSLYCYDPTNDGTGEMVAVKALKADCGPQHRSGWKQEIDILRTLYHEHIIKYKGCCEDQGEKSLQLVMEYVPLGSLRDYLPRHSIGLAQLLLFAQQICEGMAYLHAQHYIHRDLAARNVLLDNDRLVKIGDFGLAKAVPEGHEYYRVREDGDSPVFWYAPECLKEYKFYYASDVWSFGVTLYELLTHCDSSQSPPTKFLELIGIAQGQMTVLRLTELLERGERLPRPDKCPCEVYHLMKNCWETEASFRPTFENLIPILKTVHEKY
Structure (SMILES),Kd [1] [nM],"inhibition at 10 µM ([2]; compound at 10 μM, ATP 10 μM) [%]","inhibition at 10 µM ([3]; compound at 10 μM, ATP 10 μM) [%]","inhibition at 10 µM ([2]; 10 μM compound, 10 μM ATP) [%]","inhibition at 10 µM ([3]; 10 μM compound, 10 μM ATP) [%]","Tyk2 JH1% Inhibition @ 10 μM ([2]; compound at 10 μM, ATP 10 μM)","JAK2 JH1% Inhibition @ 10 μM ([3]; compound at 10 μM, ATP 10 μM)"
"CNc1cc(Nc2cccn([C@@H]3CCCOC3)c2=O)nc2c(C(=O)N[C@H]3CC[C@H](O)C3)cnn12 (stereo in doubt) [I-702, N-(3-hydroxycyclopentyl)-7-(methylamino)-5-((2-oxo-1-((S)-tetrahydro-2H-pyran-3-yl)-1,2-dihydropyridin-3-yl)amino)pyrazolo[1,5-a]pyrimidine-3-carboxamide]",0.2 to 1,< 50,< 50,–,–,–,–
CNc1cc(Nc2cccn([C@@H]3CCCOC3)c2=O)nc2c(C(=O)N[C@@H]3CC[C@H]3O)cnn12 [I-727],< 0.2,< 50,< 50,–,–,–,–
CNc1cc(Nc2cccnc2O[C@H]2C[C@@H](OC)C2)nc2c(C(=O)N[C@H]3C[C@H]3F)cnn12 [I-186],< 0.2,< 50,< 50,–,–,–,–
"CNc1cc(Nc2cccn(C(C)C)c2=O)nc2c(C(=O)N[C@H]3CC[C@@]3(C)O)cnn12 (stereo in doubt) [I-1116, N-(2-hydroxy-2-methylcyclobutyl)-5-((1-isopropyl-2-oxo-1,2-dihydropyridin-3-yl)amino)-7-(methylamino)pyrazolo[1,5-a]pyrimidine-3-carboxamide]",> 10,–,–,< 50,< 50,–,–
CNc1cc(-n2cc(N3CCCC3)c3ncccc32)nc2c(C(=O)N[C@@H]3C[C@@H]3F)cnn12 [I-553],0.2 to 1,< 50,< 50,–,–,–,–
CNc1cc(Nc2cc(F)cn(C3CCN(C)CC3)c2=O)nc2c(C(=O)NC3CC3)cnn12 [I-625],< 0.2,< 50,< 50,–,–,–,–
CNc1cc(Nc2cccnc2OC)nc2c(C(=O)N[C@@H]3CC[C@@H](O)C3)cnn12 [I-488],< 0.2,< 50,< 50,–,–,–,–
CNc1cc(Nc2cccnc2O[C@H]2C[C@H](OC)C2)nc2c(C(=O)NC3CCC3)cnn12 [I-187],< 0.2,< 50,< 50,–,–,–,–
CNc1cc(Nc2cccn([C@@H]3CCCOC3)c2=O)nc2c(C(=O)N[C@@H]3COC[C@@H]3O)cnn12 [I-787],> 10,< 50,< 50,–,–,–,–
CNc1cc(Nc2cccn([C@H]3CCCN(C)C3)c2=O)nc2c(C(=O)N[C@@H]3C[C@@H]3F)cnn12 [I-535],< 0.2,< 50,< 50,–,–,–,–
CNc1cc(Nc2cccnc2OCCOC)nc2c(C(=O)NC3CC3)cnn12 [I-218],< 0.2,< 50,< 50,–,–,–,–
NC(=O)c1cnn2c(N)cc(Nc3cccc(N4CCOCC4)c3Cl)nc12 [I-22],0.2 to 1,< 50,70 to 90,–,–,–,–
"CNc1cc(Nc2cccn(C3CCN(CCF)CC3)c2=O)nc2c(C(=O)NC3CC3)cnn12 [I-569, N-cyclopropyl-5-((1-(1-(2-fluoroethyl)piperidin-4-yl)-2-oxo-1,2-dihydropyridin-3-yl)amino)-7-(methylamino)pyrazolo[1,5-a]pyrimidine-3-carboxamide]",< 0.2,< 50,< 50,–,–,–,–
CNc1cc(Nc2cccn([C@@H]3CCOC[C@@H]3OC)c2=O)nc2c(C(=O)NC3CC3)cnn12 [I-567],1 to 10,< 50,< 50,–,–,–,–
CNc1cc(Nc2cccn(C(C)C)c2=O)nc2c(C(=O)N[C@H]3CCC[C@H](O)C3)cnn12 [I-1078],< 0.2,–,–,< 50,< 50,–,–
CNc1cc(Nc2cccn(-c3cccc(C(C)(C)O)n3)c2=O)nc2c(C(N)=O)cnn12 [I-37],< 0.2,< 50,< 50,–,–,–,–
CNc1cc(Nc2cccn([C@H]3CCC[C@H]3OC)c2=O)nc2c(C(=O)NC3CC3)cnn12 [I-491],1 to 10,< 50,< 50,–,–,–,–

Structure (SMILES),Kd [1] [nM],"inhibition at 10 µM ([2]; compound at 10 μM, ATP 10 μM) [%]","inhibition at 10 µM ([3]; compound at 10 μM, ATP 10 μM) [%]","inhibition at 10 µM ([2]; 10 μM compound, 10 μM ATP) [%]","inhibition at 10 µM ([3]; 10 μM compound, 10 μM ATP) [%]","Tyk2 JH1% Inhibition @ 10 μM ([2]; compound at 10 μM, ATP 10 μM)","JAK2 JH1% Inhibition @ 10 μM ([3]; compound at 10 μM, ATP 10 μM)"
CNc1cc(Nc2cccn([C@H]3CCCOC3)c2=O)nc2c(C(=O)N[C@@H]3COC[C@@H]3O)cnn12 [I-785],< 0.2,< 50,< 50,–,–,–,–
"Cc1c(Nc2cccnc2OC(C)C)nc2c(C(=O)N[C@@H]3C[C@@H]3F)cnn2c1N (stereo in doubt) [I-206, 7-amino-N-((1R,2S)-2-fluorocyclopropyl)-5-((2-isopropoxypyridin-3-yl)amino)-6-methylpyrazolo[1,5-a]pyrimidine-3-carboxamide]",1 to 10,< 50,< 50,–,–,–,–
CNc1cc(Nc2cccc([C@@H]3CCCOC3)n2)nc2c(C(=O)NCC(C)(C)CO)cnn12 [I-580],< 0.2,< 50,< 50,–,–,–,–
"COc1ncccc1Nc1cc(NCCN2CCOCC2)n2ncc(C(=O)NC3CC3)c2n1 [I-387, N-cyclopropyl-5-((2-methoxypyridin-3-yl)amino)-7-((2-morpholinoethyl)amino)pyrazolo[1,5-a]pyrimidine-3-carboxamide]",1 to 10,< 50,< 50,–,–,–,–
CNc1cc(Nc2cc(C)cn(-c3cnn(C4CC4)c3C)c2=O)nc2c(C(=O)NC3CCC3)cnn12 [I-159],0.2 to 1,< 50,< 50,–,–,–,–
CNc1cc(Nc2cccn([C@@H]3CCCN(C)C3)c2=O)nc2c(C(=O)NC3CC3)cnn12 [I-512],< 0.2,< 50,< 50,–,–,–,–
"CNc1cc(-c2cn(CCN3CCN(C)CC3)c3ncccc23)nc2c(C(=O)N[C@H]3CC[C@@H]3O)cnn12 (stereo in doubt) [I-852, N-(2-hydroxycyclobutyl)-7-(methylamino)-5-(1-(2-(4-methylpiperazin-1-yl)ethyl)-1H-pyrrolo[2,3-b]pyridin-3-yl)pyrazolo[1,5-a]pyrimidine-3-carboxamide]",< 0.2,–,–,< 50,< 50,–,–
"CNc1cc(-c2cn(CCN3CCN(C)CC3)c3ncccc23)nc2c(C(=O)N[C@H]3CC[C@H]3O)cnn12 (stereo in doubt) [I-851, N-(2-hydroxycyclobutyl)-7-(methylamino)-5-(1-(2-(4-methylpiperazin-1-yl)ethyl)-1H-pyrrolo[2,3-b]pyridin-3-yl)pyrazolo[1,5-a]pyrimidine-3-carboxamide]",< 0.2,–,–,< 50,< 50,–,–
CNc1cc(Nc2cccn([C@H]3CCN(CCC#N)C3)c2=O)nc2c(C(=O)NC3CC3)cnn12 [I-1011],0.2 to 1,–,–,< 50,< 50,–,–
CNc1cc(Nc2cccc([C@@H]3CCCOC3)n2)nc2c(C(=O)NC3CC3)cnn12 [I-548],< 0.2,< 50,50 to 70,–,–,–,–
CNc1cc(Nc2cccn(-c3ccnn3C)c2=O)nc2c(C(=O)N[C@H]3C[C@H]3F)cnn12 [I-335],< 0.2,< 50,< 50,–,–,–,–
NC(=O)c1cnn2c(N)cc(Nc3cc(N4CCCC4)nc(C(F)(F)F)c3)nc12 [I-120],1 to 10,< 50,< 50,–,–,–,–
CNc1cc(Nc2cccn(C3CCOCC3)c2=O)nc2c(C(=O)N[C@H]3CC[C@H]3O)cnn12 [I-557],0.2 to 1,–,–,–,–,A (percent inhibition at 10 μM lower than 50),A (percent inhibition at 10 μM lower than 50)
"CNc1cc(Nc2cccc([C@H]3CCCOC3)n2)nc2c(C(=O)NC3COCC3O)cnn12 (stereo partly drawn) [I-695, N-(4-hydroytetrahydrofuran-3-yl)-7-(methylamino)-5-((6-((R)-tetrahydro-2H-pyran-3-yl)pyridin-2-yl)amino)pyrazolo[1,5-a]pyrimidine-3-carboxamide]",< 0.2,< 50,< 50,–,–,–,–
CNc1cc(Nc2cc(Cl)cn(-c3ncc(C)s3)c2=O)nc2c(C(=O)NC3CC3)cnn12 [I-322],0.2 to 1,< 50,< 50,–,–,–,–
[2H]C([2H])([2H])Oc1ncccc1Nc1cc(NC)n2ncc(C(=O)N[C@@H]3CC[C@@H](O)C3)c2n1 [I-501],< 0.2,< 50,< 50,–,–,–,–
